Assay [1] has as its target IRAK4 kinase (Homo sapiens (Human), UniProt Q9NWZ3). Description: IRAK4 kinase activity inhibition assay (ADP-Glo). The note with it: 10 μM ATP, MBP substrate, 60 min at 25° C. In kind it is biochemical. As to the method: IRAK4 kinase (purchased from Life Technologies, Cat. No.: PR5612U) was diluted to 2 folds of the final concentration (the final concentration is 0.76 ng/μL) with reaction buffer (40 mM Tris-HCl, pH 7.5; 20 mM MgCl2; 0.1 mg/mL BSA; 1 mM DTT), and added to a 384-well plate at 5 μL/well. The test drugs were 10-fold serial diluted from 10 μM to set six concentration points and added to the test wells of the 384-well plate at 2.5 μL/well. After incubation for 10 min at 25° C., 10 μM of ATP and […] of an enzyme reaction substrate, myelin basic protein MBP (purchased from SignalChem, Cat. No.: M42-51N) were added at 2.5 µL/well, and reacted at 25° C. for 60 minutes. After the reaction was completed, the kinase activity assay was performed using the ADP-Glo™ kinase assay kit (purchased from Promega, Cat. No.: V9102) according to the manufacture's instruction, i.e., 10 μL of ADP-Glo reaction reagent was first added and reacted at 25° C. for 40 minutes, 10 μL of the solution to be tested was taken and mixed with 10 μL of ADP-Glo detection reagent, and reacted at 25° C. for 30 minutes. The kinase activity was then detected, and the IC50 values of the test drugs were calculated.

Assay [2] has as its system TNF-α secretion in THP-1 cells. Nature of the assay: LPS-induced TNF-α secretion assay in THP-1 cells (ELISA). The class given is cell-based. Conditions: Homo sapiens; LPS-induced TNF-α secretion in THP-1 cells, 2 hours pre-incubation, 24 hours LPS. As to the method: The compounds of Examples 9, 98 and 105 of the invention were tested in LPS-induced TNF-α secretion assay in THP-1 cells. Human THP-1 cells (purchased from ATCC, Cat. No.: TIB-202) were cultured in RPMI-1640 medium (purchased from Gibco, Cat. No.: 22440) containing 10% fetal bovine serum (purchased from Gibco, Cat. No.: 10099-141) and 0.05 mM of 2-mercaptoethanol (purchased from Gibco, Cat. No.: 21985). The THP-1 cells in logarithmic growth phase were seeded in a 96-well plate at 2×10^5 cells/well/100 μL. The test samples were diluted with RMPI-1640 medium to 4 folds of the final concentration (5-fold dilutions starting from 10 μM, setting 6 drug concentrations, and testing in replicate wells at each concentration). The diluted test samples were added to the test wells seeded with cells at 50 μL/well, and RMPI-1640 medium (50 μL) was separately added to positive control and negative control wells. The 96-well plate was placed in the incubator at 37° C., 5% CO2 and pre-incubated for 2 hours. The 96-well plate was taken out, and 400 ng/mL of LPS (50 μL) (purchased from Sigma, Cat. No.: L6529-1MG) was added to each well of the test wells and the positive control wells, and RMPI-1640 medium (50 μL) was added to the negative control wells. After incubation in the incubator at 37° C., 5% CO2 for 24 hours, the cell culture supernatant was taken and determined for the content of TNF-α in the supernatant using a human TNF-α ELISA kit (purchased from DKW, Cat. No.: 12-1720-096).
On the technique in general: ELISA stands for enzyme-linked immunosorbent assay.

In assay [3] the test system is TMD-8 cells. Description: TMD-8 cell growth inhibition assay (CCK-8). In kind it is cell-based. The note with it: Homo sapiens, TMD8, 96 hours. The method, then:
The compounds of Examples 9, 98 and 105 of the invention were tested in TMD-8 cell growth inhibition assay. TMD-8 cells (available from Korea Hanmi Research Center) were cultured in RMPI-1640 medium (purchased from Gibco, Cat. No.: 22440) containing 10% fetal bovine serum (purchased from Gibco, Cat. No.: 10099-141). The TMD-8 cells in logarithmic growth phase were seeded in a 96-well plate at 20,000 cells/well/100 μL, and RMPI-1640 medium (100 μL) was added into blank control wells. The test samples were diluted with RMPI-1640 medium to 2 folds of the final concentration (10-fold dilutions starting from 10 μM, setting 6 drug concentrations, and testing in replicate wells at each concentration). The diluted test samples were added to test wells seeded with cells at 100 μL/well, and RMPI-1640 medium (100 μL) was separately added to the positive control wells and the blank control wells. The 96-well plate was placed in the incubator and reacted at 37° C., 5% CO2 for 96 hours. After the reaction was completed, the 96-well plate was taken from the incubator and to each well was added CCK-8 (100 μL) (purchased from DOJINDO, Cat. No.: CK04-11). Then the 96-well plate was put back to the incubator and incubated for another 2 hours. The light absorbance was measured at 450 nm, and the IC50 values were calculated therefrom.

Sequence of IRAK4 kinase (Q9NWZ3 whole entry): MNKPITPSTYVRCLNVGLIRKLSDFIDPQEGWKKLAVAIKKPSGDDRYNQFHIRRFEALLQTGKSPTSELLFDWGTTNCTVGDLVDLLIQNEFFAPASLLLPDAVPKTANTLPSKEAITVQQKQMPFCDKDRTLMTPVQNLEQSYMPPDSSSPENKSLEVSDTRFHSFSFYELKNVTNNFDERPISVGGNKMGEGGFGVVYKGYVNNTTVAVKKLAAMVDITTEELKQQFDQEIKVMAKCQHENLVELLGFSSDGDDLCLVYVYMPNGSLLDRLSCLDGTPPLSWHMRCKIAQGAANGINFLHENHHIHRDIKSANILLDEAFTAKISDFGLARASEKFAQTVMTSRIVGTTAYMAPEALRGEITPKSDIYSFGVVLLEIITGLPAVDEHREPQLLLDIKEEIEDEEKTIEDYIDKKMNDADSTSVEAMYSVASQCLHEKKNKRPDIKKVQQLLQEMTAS

A word on the IC50: it is the concentration that inhibits the measured activity by half. Lower therefore signals inhibition by little substance. `COCCCn1ccc2nc(Nc3cc(C)ns3)nc(N[C@H]3CC[C@H](N4CCCCC4)CC3)c21` [Compound 105, 5-(3-methoxylpropyl)-N^4-(trans-4-(piperidin-1-yl)cyclohexyl)-N^2-(3-methylisothiazol-5-yl)-5H-pyrrolo[3,2-d]pyrimidine-2,4-diamine]: the IC50 is ≤ 100 nM in assay [1], ≤ 500 nM in assay [2] and ≤ 500 nM in assay [3].
